According to ChEMBL document CHEMBL5291721, “A preclinical secondary pharmacology resource illuminates target-adverse drug reaction associations of marketed drugs” (Nat Commun, 2023):

Columns and labels:
[1] = target: Beta-3 adrenergic receptor (Homo sapiens, UniProt P13945)
B1 bradykinin receptor = target: T1, B1 bradykinin receptor (Homo sapiens, UniProt P46663)
T1 sequence (P46663 whole entry): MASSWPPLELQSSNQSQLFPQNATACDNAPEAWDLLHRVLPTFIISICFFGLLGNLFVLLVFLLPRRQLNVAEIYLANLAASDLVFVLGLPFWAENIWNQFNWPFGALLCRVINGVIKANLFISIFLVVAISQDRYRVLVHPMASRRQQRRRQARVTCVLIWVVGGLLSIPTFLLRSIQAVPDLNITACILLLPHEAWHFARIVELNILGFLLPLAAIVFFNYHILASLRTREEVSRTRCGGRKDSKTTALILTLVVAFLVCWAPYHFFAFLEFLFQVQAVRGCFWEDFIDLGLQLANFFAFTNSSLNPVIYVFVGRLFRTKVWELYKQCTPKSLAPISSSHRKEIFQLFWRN

[2] = target: T2, Corticotropin-releasing factor receptor 1 (Homo sapiens, UniProt P34998)
T2 sequence (P34998 whole entry): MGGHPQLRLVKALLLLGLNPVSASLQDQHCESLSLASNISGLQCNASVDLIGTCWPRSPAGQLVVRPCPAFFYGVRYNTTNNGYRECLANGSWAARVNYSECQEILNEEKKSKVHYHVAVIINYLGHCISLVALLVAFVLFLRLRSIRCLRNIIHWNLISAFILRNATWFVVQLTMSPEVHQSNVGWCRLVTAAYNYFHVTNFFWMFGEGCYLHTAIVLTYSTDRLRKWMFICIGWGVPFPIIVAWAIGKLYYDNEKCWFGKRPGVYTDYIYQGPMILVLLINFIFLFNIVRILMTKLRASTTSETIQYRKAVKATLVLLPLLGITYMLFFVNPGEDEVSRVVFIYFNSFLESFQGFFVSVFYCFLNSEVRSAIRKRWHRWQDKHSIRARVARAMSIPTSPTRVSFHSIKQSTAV

[3] = target: T3, Corticotropin-releasing factor receptor 2 (Homo sapiens, UniProt Q13324)
T3 sequence (Q13324 whole entry): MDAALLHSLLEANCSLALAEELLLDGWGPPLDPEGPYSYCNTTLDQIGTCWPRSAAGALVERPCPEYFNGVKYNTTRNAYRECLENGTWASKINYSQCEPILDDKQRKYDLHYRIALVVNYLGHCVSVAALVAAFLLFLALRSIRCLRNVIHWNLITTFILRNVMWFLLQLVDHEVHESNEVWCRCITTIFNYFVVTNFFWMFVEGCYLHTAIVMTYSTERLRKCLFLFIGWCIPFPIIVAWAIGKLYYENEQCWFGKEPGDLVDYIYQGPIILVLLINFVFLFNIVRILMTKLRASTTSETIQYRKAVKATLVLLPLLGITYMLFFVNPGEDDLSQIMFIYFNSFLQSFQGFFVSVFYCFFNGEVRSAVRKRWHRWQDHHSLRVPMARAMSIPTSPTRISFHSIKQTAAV

[4] = target: T4, Endothelin receptor type B (Homo sapiens, UniProt P24530)
T4 sequence (P24530 whole entry): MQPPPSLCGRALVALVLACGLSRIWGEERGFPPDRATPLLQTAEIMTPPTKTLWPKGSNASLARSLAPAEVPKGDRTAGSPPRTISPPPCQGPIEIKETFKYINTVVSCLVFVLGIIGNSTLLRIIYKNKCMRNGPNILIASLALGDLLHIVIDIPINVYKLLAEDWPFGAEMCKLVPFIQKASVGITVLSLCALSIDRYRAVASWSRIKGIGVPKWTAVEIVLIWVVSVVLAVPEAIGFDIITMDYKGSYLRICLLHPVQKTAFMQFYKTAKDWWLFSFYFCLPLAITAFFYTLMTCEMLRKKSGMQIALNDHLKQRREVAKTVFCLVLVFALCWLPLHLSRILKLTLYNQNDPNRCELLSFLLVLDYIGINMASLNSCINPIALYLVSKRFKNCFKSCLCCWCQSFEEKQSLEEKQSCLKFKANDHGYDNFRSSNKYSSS

Glucagon receptor = Glucagon receptor (Homo sapiens, UniProt P47871)
Chain of Glucagon receptor (P47871 whole entry): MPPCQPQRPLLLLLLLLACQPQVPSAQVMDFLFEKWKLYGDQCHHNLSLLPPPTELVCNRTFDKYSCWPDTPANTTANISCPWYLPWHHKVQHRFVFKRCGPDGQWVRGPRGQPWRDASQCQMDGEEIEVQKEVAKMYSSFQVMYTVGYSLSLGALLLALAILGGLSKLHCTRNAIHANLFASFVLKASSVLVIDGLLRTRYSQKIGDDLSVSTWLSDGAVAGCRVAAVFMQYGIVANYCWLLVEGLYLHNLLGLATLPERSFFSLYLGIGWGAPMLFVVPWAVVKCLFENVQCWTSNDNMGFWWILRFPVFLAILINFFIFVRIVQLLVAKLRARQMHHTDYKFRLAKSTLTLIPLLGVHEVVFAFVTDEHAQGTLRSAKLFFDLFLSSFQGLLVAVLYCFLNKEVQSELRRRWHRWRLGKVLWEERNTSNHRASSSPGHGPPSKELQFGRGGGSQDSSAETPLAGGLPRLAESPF

Progesterone receptor = target: T5, Progesterone receptor (Homo sapiens, UniProt P06401)
T5 sequence (P06401 whole entry): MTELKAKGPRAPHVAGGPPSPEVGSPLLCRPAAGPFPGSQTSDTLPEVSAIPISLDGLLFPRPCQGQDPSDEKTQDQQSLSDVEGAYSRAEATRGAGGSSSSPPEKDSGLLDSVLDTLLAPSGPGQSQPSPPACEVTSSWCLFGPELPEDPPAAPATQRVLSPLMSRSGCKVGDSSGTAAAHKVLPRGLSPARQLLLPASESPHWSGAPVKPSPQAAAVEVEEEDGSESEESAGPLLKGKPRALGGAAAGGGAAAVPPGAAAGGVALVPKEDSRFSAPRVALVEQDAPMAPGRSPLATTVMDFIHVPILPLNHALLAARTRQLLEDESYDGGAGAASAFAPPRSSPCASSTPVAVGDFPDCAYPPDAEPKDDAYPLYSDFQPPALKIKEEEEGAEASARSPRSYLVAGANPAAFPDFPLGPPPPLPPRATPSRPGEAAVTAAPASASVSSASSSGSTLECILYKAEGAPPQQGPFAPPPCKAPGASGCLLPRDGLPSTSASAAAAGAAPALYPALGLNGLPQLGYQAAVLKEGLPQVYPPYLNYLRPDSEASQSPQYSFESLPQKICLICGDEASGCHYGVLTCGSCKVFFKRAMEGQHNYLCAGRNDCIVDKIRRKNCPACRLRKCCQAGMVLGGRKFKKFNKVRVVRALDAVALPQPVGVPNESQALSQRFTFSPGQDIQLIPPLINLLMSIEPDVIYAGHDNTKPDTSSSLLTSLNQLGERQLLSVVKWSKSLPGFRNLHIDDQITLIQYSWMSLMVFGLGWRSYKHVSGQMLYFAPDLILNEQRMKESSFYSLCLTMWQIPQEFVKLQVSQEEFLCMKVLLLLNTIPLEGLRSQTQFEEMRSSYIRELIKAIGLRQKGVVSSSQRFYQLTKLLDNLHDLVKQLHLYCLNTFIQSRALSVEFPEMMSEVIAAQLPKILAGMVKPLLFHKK

D(1A) dopamine receptor = D(1A) dopamine receptor (Homo sapiens, UniProt P21728)
Chain of D(1A) dopamine receptor (P21728 whole entry): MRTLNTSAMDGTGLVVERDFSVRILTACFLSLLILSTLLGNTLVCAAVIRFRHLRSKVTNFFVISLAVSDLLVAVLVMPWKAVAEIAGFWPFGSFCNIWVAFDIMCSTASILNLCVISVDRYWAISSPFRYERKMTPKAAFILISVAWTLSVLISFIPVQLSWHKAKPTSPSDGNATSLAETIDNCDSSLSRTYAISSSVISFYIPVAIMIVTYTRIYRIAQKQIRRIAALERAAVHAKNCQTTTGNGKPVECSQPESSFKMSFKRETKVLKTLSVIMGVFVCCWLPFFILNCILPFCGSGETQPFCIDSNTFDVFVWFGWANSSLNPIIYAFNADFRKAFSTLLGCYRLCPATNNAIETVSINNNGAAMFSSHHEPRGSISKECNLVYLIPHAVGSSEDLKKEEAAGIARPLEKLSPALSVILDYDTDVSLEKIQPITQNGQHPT
Also: assay procedure not described here.

Chain of Beta-3 adrenergic receptor (P13945 whole entry): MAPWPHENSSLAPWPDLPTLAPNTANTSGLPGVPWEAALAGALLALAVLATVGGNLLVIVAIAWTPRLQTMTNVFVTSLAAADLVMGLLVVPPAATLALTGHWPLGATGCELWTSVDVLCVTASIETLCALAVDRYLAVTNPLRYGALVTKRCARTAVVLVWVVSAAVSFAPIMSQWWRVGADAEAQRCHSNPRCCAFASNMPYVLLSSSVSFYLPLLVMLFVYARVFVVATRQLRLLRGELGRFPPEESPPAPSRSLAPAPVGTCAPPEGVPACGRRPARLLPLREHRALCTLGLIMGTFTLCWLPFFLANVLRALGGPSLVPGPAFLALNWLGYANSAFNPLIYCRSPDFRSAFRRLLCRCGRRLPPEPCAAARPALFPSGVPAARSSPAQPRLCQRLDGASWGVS

Compound: CN(C)CCCN1c2ccccc2Sc2ccccc21 [PROMAZINE]
- AC50 [1]: > 30 µM
- AC50 (B1 bradykinin receptor): > 30 µM
- AC50 [2]: > 30 µM
- AC50 [3]: > 30 µM
- AC50 [4]: > 30 µM
- AC50 (Glucagon receptor): > 30 µM
- AC50 (Progesterone receptor): > 30 µM
- AC50 (D(1A) dopamine receptor): 1.08 µM

Compound: O=C(O)CCn1c2c(c3ccccc31)C[C@H](NS(=O)(=O)c1ccc(F)cc1)CC2 [RAMATROBAN]
- AC50 (B1 bradykinin receptor): > 10 µM
- AC50 [4]: > 10 µM
- AC50 (Glucagon receptor): > 10 µM
- AC50 (D(1A) dopamine receptor): 6.01 µM

Compound: O=C(Nc1ccccc1)OCC(CN1CCCCC1)OC(=O)Nc1ccccc1 (stereo not drawn) [DIPERODON]
- AC50 [1]: > 30 µM
- AC50 (B1 bradykinin receptor): > 30 µM
- AC50 [2]: > 30 µM
- AC50 [3]: > 30 µM
- AC50 [4]: > 30 µM
- AC50 (Glucagon receptor): > 30 µM
- AC50 (Progesterone receptor): > 30 µM
- AC50 (D(1A) dopamine receptor): > 10 µM

Compound: O=C(O)c1cccc(-c2noc(-c3ccccc3F)n2)c1
- AC50 (Progesterone receptor): > 30 µM

Compound: CC(=O)N(CC(O)CO)c1c(I)c(C(=O)NCC(O)CO)c(I)c(C(=O)NCC(O)CO)c1I (stereo not drawn) [IOHEXOL]
- AC50 (Progesterone receptor): > 30 µM

Compound: O=P(O)(O)C(O)(Cc1cccnc1)P(=O)(O)O [RISEDRONIC ACID]
- AC50 [1]: > 30 µM
- AC50 (B1 bradykinin receptor): > 30 µM
- AC50 [2]: > 30 µM
- AC50 [3]: > 30 µM
- AC50 [4]: > 30 µM
- AC50 (Glucagon receptor): > 30 µM
- AC50 (Progesterone receptor): > 30 µM
- AC50 (D(1A) dopamine receptor): > 10 µM

Compound: C=C1C[C@@H]2[C@H](CC[C@]3(C)C(=O)CC[C@@H]23)[C@@]2(C)C=CC(=O)C=C12 [EXEMESTANE]
- AC50 [1]: > 30 µM
- AC50 (B1 bradykinin receptor): > 30 µM
- AC50 [2]: > 30 µM
- AC50 [3]: > 30 µM
- AC50 [4]: > 30 µM
- AC50 (Glucagon receptor): > 30 µM
- AC50 (Progesterone receptor): 29.3 µM

Compound: CC(C)(N)Cc1ccc(Cl)cc1 [CHLORPHENTERMINE]
- AC50 [1]: > 30 µM
- AC50 (B1 bradykinin receptor): > 30 µM
- AC50 [2]: > 30 µM
- AC50 [3]: > 30 µM
- AC50 [4]: > 30 µM
- AC50 (Glucagon receptor): > 30 µM
- AC50 (Progesterone receptor): > 30 µM
- AC50 (D(1A) dopamine receptor): > 10 µM

Compound: O=C1CCC(N2C(=O)c3ccccc3C2=O)C(=O)N1 (stereo not drawn) [THALIDOMIDE]
- AC50 [1]: > 30 µM
- AC50 (B1 bradykinin receptor): > 30 µM
- AC50 [2]: > 30 µM
- AC50 [3]: > 30 µM
- AC50 [4]: > 30 µM
- AC50 (Glucagon receptor): > 30 µM
- AC50 (Progesterone receptor): > 30 µM
- AC50 (D(1A) dopamine receptor): > 10 µM
